Assay results published in patent publication US20230265151A1, “GIP/GLP1 CO-AGONIST COMPOUNDS” (priority 2020, published 2023).
Read-outs that look alike come from different tables or passages of the source.

Tests used:
Type in all cases: cell-based
[1] = target: T1, hGIPR (Homo sapiens, UniProt P48546); assay: Functional cAMP formation (HTRF) in HEK-293 clonal cells expressing hGIPR, 0.1% bovine casein, without or with 1.0% human serum albumin; settings: for Emax: read-out: hGIPR Emax, % ± SEM; for EC50: geometric mean, read-out: hGIPR EC50, nM (SEM, n)
T1 construct: expressed in transfected cells
T1 sequence (P48546 22-466): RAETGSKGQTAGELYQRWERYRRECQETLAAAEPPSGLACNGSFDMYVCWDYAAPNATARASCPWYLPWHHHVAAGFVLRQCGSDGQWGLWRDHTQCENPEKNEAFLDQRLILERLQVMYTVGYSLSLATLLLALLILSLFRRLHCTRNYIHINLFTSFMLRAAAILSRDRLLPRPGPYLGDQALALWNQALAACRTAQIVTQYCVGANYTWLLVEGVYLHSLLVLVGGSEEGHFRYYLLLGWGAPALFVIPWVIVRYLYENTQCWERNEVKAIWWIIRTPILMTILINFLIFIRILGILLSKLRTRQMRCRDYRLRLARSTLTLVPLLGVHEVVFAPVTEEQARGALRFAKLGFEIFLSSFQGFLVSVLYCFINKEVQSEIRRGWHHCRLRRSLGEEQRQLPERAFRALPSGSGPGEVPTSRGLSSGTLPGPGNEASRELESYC
Method in brief: (§1)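 Cells were stimulated with peptide for 30 min at 37° C, then lysed in buffer carrying cAMP-d2 and anti-cAMP Eu3+-cryptate for a competitive HTRF read after at least 60 min at room temperature. The 665/620 nm ratio was converted to nM cAMP against a standard curve.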

[2] = target: T2, hGCGR (Homo sapiens, UniProt P47871); assay: Functional cAMP formation (HTRF) in HEK-293 clonal cells expressing hGCGR, 0.1% bovine casein, without or with 1.0% human serum albumin; settings: read-out: hGCGR EC50, nM (SEM, n)
T2 construct: expressed in transfected cells
Method in brief: as §1

[3] = target: hGLP-1R (Homo sapiens, UniProt P43220); assay: Functional cAMP formation (HTRF) in HEK-293 clonal cells expressing hGLP-1R, 0.1% bovine casein, without or with 1.0% human serum albumin; parameters: expressed in transfected cells; settings: for Emax: read-out: hGLP-1R Emax, % ± SEM; for EC50: geometric mean, read-out: hGLP-1R EC50, nM (SEM, n)
Method in brief: as §1

[4] = cAMP, 37° C., 0.1% bovine casein (no human serum albumin)
[5] = 0.1% bovine casein and 1.0% human serum albumin, 37° C.
[6] = cAMP, incubated at 37° C., 0.1% bovine casein (no human serum albumin)

hGLP-1R, sequence (P43220 24-463): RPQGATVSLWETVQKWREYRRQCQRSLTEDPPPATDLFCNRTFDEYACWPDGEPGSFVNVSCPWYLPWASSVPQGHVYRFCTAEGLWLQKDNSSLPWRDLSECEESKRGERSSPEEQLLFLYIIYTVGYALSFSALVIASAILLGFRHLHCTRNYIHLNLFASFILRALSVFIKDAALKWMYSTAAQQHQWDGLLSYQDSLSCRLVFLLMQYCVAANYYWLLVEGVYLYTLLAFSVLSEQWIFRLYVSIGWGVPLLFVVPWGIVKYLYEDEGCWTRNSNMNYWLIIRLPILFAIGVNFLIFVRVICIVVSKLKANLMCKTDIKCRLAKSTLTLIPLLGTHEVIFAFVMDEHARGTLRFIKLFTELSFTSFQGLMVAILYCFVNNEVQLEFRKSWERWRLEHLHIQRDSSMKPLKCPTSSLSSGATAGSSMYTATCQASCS
T2 sequence (P47871 26-477): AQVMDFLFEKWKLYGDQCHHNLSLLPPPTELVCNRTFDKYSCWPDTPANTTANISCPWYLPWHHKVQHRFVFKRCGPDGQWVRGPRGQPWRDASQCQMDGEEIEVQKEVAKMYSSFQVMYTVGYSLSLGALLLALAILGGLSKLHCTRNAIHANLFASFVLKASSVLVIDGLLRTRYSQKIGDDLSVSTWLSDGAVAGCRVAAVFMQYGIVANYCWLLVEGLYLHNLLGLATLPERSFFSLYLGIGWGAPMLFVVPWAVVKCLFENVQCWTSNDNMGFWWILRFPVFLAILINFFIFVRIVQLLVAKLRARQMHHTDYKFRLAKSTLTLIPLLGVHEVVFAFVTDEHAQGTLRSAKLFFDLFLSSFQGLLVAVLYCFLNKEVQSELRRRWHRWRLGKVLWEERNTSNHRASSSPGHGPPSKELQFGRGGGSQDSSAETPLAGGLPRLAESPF

Row | Structure (SMILES) | Emax ([1]; HEK293, cAMP, 37° C., 0.1% bovine casein and 1.0% human serum albumin, percent of maximal response to GIP(1-42)NH2) | EC50 [1, 4] | EC50 ([2]; cAMP, 37° C., 0.1% bovine casein (no human serum albumin), geometric mean) | EC50 ([2]; cAMP, 37° C., 0.1% bovine casein and 1.0% human serum albumin, geometric mean (SEM, n)) | Emax ([3]; HEK293, cAMP, 37° C., 0.1% bovine casein, percent of maximal response to GLP-1(7-36)NH2, arithmetic mean) | EC50 [3, 4] | EC50 [1, 5] | Emax ([1]; HEK293, 0.1% bovine casein and 1.0% human serum albumin, 37° C., percent of maximal response to GIP(1-42)NH2) | Emax ([1]; HEK293, percent of maximal response to GIP(1-42)NH2, 37° C., 0.1% bovine casein, arithmetic mean) | EC50 [1, 6] | EC50 ([2]; 0.1% bovine casein and 1.0% human serum albumin, 37° C., geometric mean) | EC50 ([2]; cAMP, incubated at 37° C., 0.1% bovine casein (no human serum albumin), geometric mean) | EC50 [3, 5] | Emax ([3]; HEK293, 0.1% bovine casein and 1.0% human serum albumin, 37° C., percent of maximal response to GLP-1(7-36)NH2) | Emax ([3]; HEK293, percent of maximal response to GLP-1(7-36)NH2, 37° C., 0.1% bovine casein, arithmetic mean) | EC50 [3, 6]
1 | CC[C@H](C)[C@H](NC(=O)[C@H](CC(C)C)NC(=O)[C@](C)(Cc1ccc(O)cc1)NC(=O)[C@H](CCCCNC(=O)COCCOCCNC(=O)CC[C@H](NC(=O)CCCCCCCCCCCCC(=O)O)C(=O)O)NC(=O)[C@@H](NC(=O)[C@H](Cc1ccccc1)NC(=O)[C@H](CCCN)NC(=O)C(C)(C)NC(=O)[C@H](CCC(N)=O)NC(=O)[C@H](C)NC(=O)[C@H](CCC(N)=O)NC(=O)[C@H](CCCN)NC(=O)[C@H](CC(=O)O)NC(=O)[C@H](CC(C)C)NC(=O)[C@](C)(CC(C)C)NC(=O)[C@@H](NC(=O)C(C)(C)NC(=O)[C@H](Cc1ccncc1)NC(=O)[C@H](CC(=O)O)NC(=O)[C@H](CO)NC(=O)[C@@H](NC(=O)[C@](C)(Cc1ccccc1F)NC(=O)[C@@H](NC(=O)CNC(=O)[C@H](CCC(=O)O)NC(=O)C(C)(C)NC(=O)[C@@H](N)Cc1ccc(O)cc1)[C@@H](C)O)[C@@H](C)O)[C@@H](C)CC)[C@@H](C)CC)C(=O)N[C@@H](CCCCNC(=O)COCCOCCNC(=O)CC[C@H](NC(=O)CCCCCCCCCCCCC(=O)O)C(=O)O)C(=O)NCC(=O)NCC(=O)N1CCC[C@H]1C(=O)N[C@@H](CO)C(=O)N[C@@H](CO)C(=O)NCC(=O)N[C@@H](C)C(=O)N1CCC[C@H]1C(=O)N1CCC[C@H]1C(=O)N1CCC[C@H]1C(=O)N[C@@H](CO)C(N)=O [Example 459] | 89.3% | 0.013 nM | > 9950 nM | > 9950 nM | 120% | 0.18 nM |  |  |  |  |  |  |  |  |  | 
2 | CC[C@H](C)[C@H](NC(=O)[C@H](CCCN)NC(=O)[C@H](CC(=O)O)NC(=O)[C@H](CC(C)C)NC(=O)[C@](C)(CC(C)C)NC(=O)[C@@H](NC(=O)C(C)(C)NC(=O)[C@H](Cc1ccncc1)NC(=O)[C@H](CC(=O)O)NC(=O)[C@H](CO)NC(=O)[C@@H](NC(=O)[C@](C)(Cc1ccccc1F)NC(=O)[C@@H](NC(=O)CNC(=O)[C@H](CCC(=O)O)NC(=O)C(C)(C)NC(=O)[C@@H](N)Cc1ccc(O)cc1)[C@@H](C)O)[C@@H](C)O)[C@@H](C)CC)C(=O)N[C@@H](C)C(=O)N[C@@H](CCC(N)=O)C(=O)NC(C)(C)C(=O)N[C@@H](CCCCNC(=O)COCCOCCNC(=O)COCCOCCNC(=O)CC[C@H](NC(=O)CCCCCCCCCCCCC(=O)O)C(=O)O)C(=O)N[C@@H](Cc1ccccc1)C(=O)N[C@H](C(=O)N[C@H](CCC(=O)O)C(=O)N[C@@](C)(Cc1ccc(O)cc1)C(=O)N[C@@H](CC(C)C)C(=O)N[C@H](C(=O)N[C@@H](CCCCNC(=O)COCCOCCNC(=O)COCCOCCNC(=O)CC[C@H](NC(=O)CCCCCCCCCCCCC(=O)O)C(=O)O)C(=O)NCC(=O)NCC(=O)N1CCC[C@H]1C(=O)N[C@@H](CO)C(=O)N[C@@H](CO)C(=O)NCC(=O)N[C@@H](C)C(=O)N1CCC[C@H]1C(=O)N1CCC[C@H]1C(=O)N1CCC[C@H]1C(=O)N[C@@H](CO)C(N)=O)[C@@H](C)CC)[C@@H](C)CC [Example 220] |  |  |  |  |  |  | 11.6 nM | 83.5% | 91.6% | 0.0237 nM | > 9950 nM | > 9950 nM | 150 nM | 110% | 87.6% | 0.535 nM
